According to US20220339138A1, “METHODS AND COMPOSITIONS FOR TREATMENT OF RETT SYNDROME” (ACADIA PHARMACEUTICALS INC., priority 2019, published 2022):
“Also recorded” adds a separate entry of the source. Where two headings read alike, the source gives them in different places. Each block holds one compound with its values, some of them ahead of it. Square brackets hold non-standard residues; d marks the D form. Peptide text beside a SMILES is read from it. αMeP = C[C@@]1(C(=O)O)CCCN1

What was measured:
[1] = clinical; conditions: human, in vivo
Experimental: These pharmacokinetic results are in agreement with the data obtained previously in healthy subjects and in adolescent and adult RTT patients.
Therefore, the upper levels of exposure in the 200 mg/kg BID dose level were considered to be effective and thus an appropriate target exposure level. Thus, dosing strategies were developed with the aim of providing a minimal target exposure of 800 μg/mL·h, corresponding approximately to the 90-100% AUC quantile of exposure (AUC0-12) observed in the children/adolescents study for the nominal dose of 200 mg/kg BID. With weight-banding, a greater proportion of subjects is expected to achieve the target drug exposure.

[2] = Population pharmacokinetic model from 9 clinical studies; assay type: in vivo, human; conditions: final population PK model, population mean
Text: Data for the population PK model development of trofinetide came from 5 Phase 1 studies and 4 Phase 2 studies, including patients with Rett syndrome and other diseases. A total of 3058 trofinetide concentration records collected in 290 subjects were available for potential use in the analysis. A blend of full-profile and sparse data from 94 healthy volunteers, 93 patients with Rett syndrome (adult and pediatric), 103 patients with other diseases was available for this analysis.
Key steps for the development of the trofinetide population PK model were: 1) exploratory data analysis; 2) base structural model development via application, re-estimation, and refinement of a population PK model using pooled data from 9 clinical studies; 3) evaluation of covariate effects using forward selection; 4) full multivariable model evaluation: 5) backward elimination of covariates; 6) final model refinement; and 7) model evaluation. The continuous covariates evaluated included age, body weight, body mass index (BMI), estimated glomerular filtration rate, total bilirubin, alanine aminotransferase, and aspartate aminotransferase. The only categorical covariate evaluated was a combination of sex and disease state (SEXDS), where: SEXDS=0 for male healthy volunteers, SEXDS=1 for female healthy volunteers, SEXDS=2 for patients with Rett (female only), SEXDS=3 for patients with other disease A (male only), SEXDS=4 for male patients with other disease B, and SEXDS=5 for female patients with other disease B. The covariate analysis used a standard forward selection-backward elimination method to identify statistically significant (α=0.001) predictors of PK variability that also explained a sufficient proportion of interindividual variability (IIV) for the respective PK parameter upon which they were tested (that is, reducing IV by ≥5%). The final PK model was validated using a simulation-based, prediction-corrected visual predictive check (pcVPC) methodology to assess concordance between the model-based simulated data and the observed data.
A total of 2759 trofinetide plasma concentrations in 281 subjects were used in the development of the population PK model. The analysis dataset comprised subjects with a median (range) age of 22 (5 to 64) years and a median (range) body weight of 65.6 (15.1 to 139.6) kg, with 52.8% of the analysis population being male and 47.2% female.
The final population PK model for trofinetide was a 2-compartment model with first-order absorption, linear elimination, and 2 separate exponential error models for healthy volunteers and patients. The model included separate bioavailability terms for oral dosing (relative bioavailability [F1]) and dosing via gastric tube (F1G). Interindividual variability was estimated for first-order absorption (ka), clearance (CL), central volume of distribution (Vc), peripheral volume of distribution (Vp), and intercompartmental clearance (Q) using exponential error models.
A total of 4 covariate-parameter relationships were included in the final population PK model. […] Therefore, the final PK model included body weight as a significant predictor of both CL (as a power function) and Vc (as a power function), and SEXDS as a significant predictor of both CL (as a proportional function) and Vc (as a proportional function).

[3] = test system: patients with Rett syndrome; assay: CGI-I exposure-response model; set-up: species or system human; conditions: refined population PK and E-R models
Experimental: Exposure-response analyses of the CGI-I scores were performed on data from patients with Rett syndrome with available trofinetide exposure estimates, plus placebo patients. All of the patients included in this analysis had at least 1 CGI-I score measured after trofinetide or placebo dosing. Data from 52 adult patients with Rett syndrome and 81 pediatric patients with Rett syndrome were pooled for this analysis.
The endpoints used for E-R efficacy modeling include CGI-I scores from two clinical studies and RSBQ scores from one clinical study. The CGI-I scores were measured on Days 5, 14, 17, and 26 and CGI-I scores were measured on Days 21, 28, 42, and 54. All patients received placebo for the first 14 days, so Day 14 was treated as the “true baseline” for trofinetide treatment. The RSBQ scores were collected on Days 14, 28, 42 and 54.
The overall procedures followed for the development of the E-R models for CGI-I and RSBQ scores were: 1) generation of individual estimates of exposure based on the population PK model; 2) exploratory data analysis; 3) base structural model development incorporating drug exposure effects; 4) evaluation of covariate effects, 5) final model refinement; and 6) model evaluation. Covariates evaluated in the analysis of efficacy endpoints were age, body weight, and BMI. […]

[4] = test system: girls and women with RTT; assay: Phase 2 clinical studies of trofinetide in Rett syndrome (efficacy, tolerability); assay type: in vivo, human
Experimental: Rett syndrome is a devastating disorder for which there is as yet no treatment beyond symptomatic care resulting in a great unmet medical need. […] Exposure-response analyses of RSBQ scores were performed on data from pediatric patients with Rett syndrome with available trofinetide exposure estimates, plus placebo patients. All of the patients included in this analysis had at least 1 RSBQ score measured after trofinetide or placebo dosing. The RSBQ E-R analysis dataset included only the 81 pediatric patients with Rett syndrome. The endpoints used for E-R efficacy modeling include CGI-I scores from two clinical studies and RSBQ scores from one clinical study. The CGI-I scores were measured on Days 5, 14, 17, and 26 and CGI-I scores were measured on Days 21, 28, 42, and 54. All patients received placebo for the first 14 days, so Day 14 was treated as the “true baseline” for trofinetide treatment. The RSBQ scores were collected on Days 14, 28, 42 and 54.

[5] = cited from earlier work
[6] = following oral administration; cited from earlier work
[7] = test system: children with Rett syndrome 2 to 10 years of age; conditions: Phase 2 trial (O'Leary et al. 2018); cited from earlier work
[8] = test system: MeCP2 mutant mice; conditions: MeCP2 mutant mice (Tropea et al. 2009); cited from earlier work
[9] = 50 mg/kg BID, pediatric RTT patients
[10] = 100 mg/kg BID, pediatric RTT patients
[11] = 200 mg/kg BID, pediatric RTT patients

effect of body weight on clearance and central volume of distribution [1]: significant effect
AUC(0-t) ([1]; 200 mg/kg): ≥ 790 µg·h/mL
bioavailability ([2]; both sexes, human, plasma, other: gastric tube, read-out: F1G: Gastric Tube Bioavailability): 84.7%
bioavailability ([2]; both sexes, human, plasma, po, read-out: F1: Oral Bioavailability): 77%
clearance ([2]; both sexes, human, plasma, read-out: CL: Central Clearance (converted)): 192 mL/min
Q: Distribution Clearance [2]: 1.02 L/h
Vc: Central Volume [2]: 22.2 L
Vc: Exponent of (WTKG/65) for Vc [2]: 0.770
Vc: Proportional Shift in Vc for Rett = 1 [2]: −0.562
Vc: Proportional Shift in Vc for disease B = 1 [2]: −0.374
Vp: Peripheral Volume [2]: 53.0 L
ka: First-Order Absorption Rate Constant [2]: 0.195 h⁻¹
Compound: C[C@@]1(C(=O)N[C@@H](CCC(=O)O)C(=O)O)CCCN1C(=O)CN [trofinetide, (2S)-2-[[(2S)-1-(2-aminoacetyl)-2-methylpyrrolidine-2-carbonyl]amino]pentanedioic acid] (H-Gly-[αMeP]-Glu-OH)
association of higher trofinetide exposure with improvement in Rett syndrome (CGI-I and RSBQ scores) compared to placebo [3]: greater improvement
clinical efficacy versus placebo ([4]; 200 mg/kg BID, Phase 2): evidence of clinical efficacy; also recorded: benefit compared to placebo
median percent change in RSBQ scores from baseline ([4]; 200 mg/kg twice daily (BID), over 54 days, pediatric patients with Rett syndrome): −14.4%
PK/PD relationship (exposure versus RSBQ, RTT-DSC, CGI-I) ([4]; exploratory analyses, Phase 2): positive PK/PD relationship
tolerability ([4]; two studies in girls and women with RTT): well tolerated
median AUC(0-12ss) [5, 9]: 139.4 µg·h/mL
median Cmax [5, 9]: 17.7 µg/mL
median AUC(0-12ss) [5, 10]: 338.6 µg·h/mL
median Cmax [5, 10]: 52.6 µg/mL
median AUC(0-12ss) [5, 11]: 505.1 µg·h/mL
median Cmax [5, 11]: 82.2 µg/mL
accumulation, metabolic inhibition, or induction during treatment ([5]; Phase 2 studies): no accumulation, metabolic inhibition, or induction
pharmacokinetics across the dose range tested ([5]; pediatric RTT patients): linear pharmacokinetics
blood-brain barrier passage [6]: crosses the blood-brain barrier

Compound: mecasermin: recombinant human IGF-1, a compound related to trofinetide
CSBS-DP-IT, active treatment group compared to placebo [7]: evidence of benefit

Compound: glycine-proline-glutamate [GPE]
effect on Rett-like symptoms [8]: reversed Rett-like symptoms
